Laboratory results reported in the NIST ThermoML archive (doi:10.1021/je700710d).
Numbers after ± are expanded uncertainties.

Details: 298.15 K, 101.33 kPa, Liquid; for viscosity: Capillary tube (Ostwald / Ubbelohde) method

Row | viscosity [mPa·s] | mass density (Vibrating tube method) [kg/m3] | mass density [kg/m3] | Structure (SMILES)
1 | 97.58 ± 4 | 1237.63 ± 8.3 |  | CCOS(=O)(=O)[O-].CCn1cc[n+](C)c1 [1-ethyl-3-methylimidazolium ethyl sulfate]
2 | 1.082 ± 0.009 |  | 785.46 ± 0.47 | CCO [ethanol]
